Source: ChEMBL document CHEMBL4425117 (Bioorg Med Chem Lett, 2016)
One block for each compound: values may come before it.

Key:
[1] = Oral bioavailability in dog; format: ADME, organism-based, Canis lupus familiaris; details: in vivo
Endothelin-1 receptor [2] = molecular target: T1, Endothelin-1 receptor (Homo sapiens, UniProt P25101); test: Displacement of [125I]-ET-1 from human ETA receptor expressed in CHO cell membranes after 2 hrs by scintillation counting
T1 sequence (P25101 whole entry): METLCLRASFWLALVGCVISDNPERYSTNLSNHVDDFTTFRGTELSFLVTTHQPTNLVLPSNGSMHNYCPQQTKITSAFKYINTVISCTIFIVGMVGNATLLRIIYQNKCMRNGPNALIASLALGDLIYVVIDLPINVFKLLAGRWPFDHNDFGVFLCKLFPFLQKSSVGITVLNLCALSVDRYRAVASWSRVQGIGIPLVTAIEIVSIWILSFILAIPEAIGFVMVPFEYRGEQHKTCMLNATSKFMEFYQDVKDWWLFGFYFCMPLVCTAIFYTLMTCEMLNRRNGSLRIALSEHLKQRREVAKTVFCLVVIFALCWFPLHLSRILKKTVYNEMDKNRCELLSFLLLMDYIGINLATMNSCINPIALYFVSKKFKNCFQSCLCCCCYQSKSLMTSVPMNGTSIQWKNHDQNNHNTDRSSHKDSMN

[3] = molecular target: T2, Endothelin receptor type B (Rattus norvegicus, UniProt P21451); test: Displacement of 125I-ET1 from rat aortic ring ETB receptor
T2 sequence (P21451 whole entry): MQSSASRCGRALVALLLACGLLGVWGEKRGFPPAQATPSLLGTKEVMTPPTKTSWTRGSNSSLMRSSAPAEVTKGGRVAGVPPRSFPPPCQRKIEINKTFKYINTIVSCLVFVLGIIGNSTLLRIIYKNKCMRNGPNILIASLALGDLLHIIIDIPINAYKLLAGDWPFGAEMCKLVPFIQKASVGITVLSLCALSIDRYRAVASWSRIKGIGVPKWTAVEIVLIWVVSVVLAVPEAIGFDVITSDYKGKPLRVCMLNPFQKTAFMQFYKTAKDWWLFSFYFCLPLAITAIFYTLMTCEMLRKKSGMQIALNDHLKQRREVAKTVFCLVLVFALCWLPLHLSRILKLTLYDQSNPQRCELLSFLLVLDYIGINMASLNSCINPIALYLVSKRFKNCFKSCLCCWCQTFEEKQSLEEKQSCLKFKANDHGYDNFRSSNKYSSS

Endothelin-1 receptor [4] = molecular target: T1, Endothelin-1 receptor; test: Displacement of 125I-ET1 from human smooth muscle ETA receptor expressed in fall armyworm sf9 cell membranes
[5] = molecular target: T2, Endothelin receptor type B; test: Displacement of [125I]-ET1 from ETB receptor in rat cerebellum after 3 hrs by scintillation counting method; format: tissue-based
[6] = molecular target: T3, Endothelin receptor type B (Homo sapiens, UniProt P24530); test: Antagonist activity at ETB receptor (unknown origin)
T3 sequence (P24530 whole entry): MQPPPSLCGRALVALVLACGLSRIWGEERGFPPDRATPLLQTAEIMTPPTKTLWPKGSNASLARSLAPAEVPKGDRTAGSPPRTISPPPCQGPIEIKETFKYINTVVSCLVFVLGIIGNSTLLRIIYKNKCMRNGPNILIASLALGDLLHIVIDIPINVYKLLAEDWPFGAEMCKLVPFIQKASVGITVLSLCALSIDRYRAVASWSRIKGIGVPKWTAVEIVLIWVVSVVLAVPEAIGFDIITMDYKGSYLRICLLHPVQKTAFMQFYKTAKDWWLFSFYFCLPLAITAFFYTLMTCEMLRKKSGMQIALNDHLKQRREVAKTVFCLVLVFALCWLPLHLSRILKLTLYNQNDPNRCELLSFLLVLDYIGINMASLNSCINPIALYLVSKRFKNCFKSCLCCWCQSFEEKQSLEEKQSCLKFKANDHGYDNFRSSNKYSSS

Endothelin-1 receptor [7] = molecular target: T1, Endothelin-1 receptor; test: Antagonist activity at ETA receptor (unknown origin)
Endothelin-1 receptor [8] = molecular target: T1, Endothelin-1 receptor; test: Displacement of 125I-ET1 from human placenta cell membrane ETA receptor expressed in Baculovirus-infected insect cells
[9] = molecular target: T3, Endothelin receptor type B; test: Displacement of radioligand from ETB receptor in human placenta cell membranes
Endothelin-1 receptor [10] = molecular target: T1, Endothelin-1 receptor; test: Antagonist activity at ETA receptor (unknown origin) in presence of ET1
Endothelin-1 receptor [11] = molecular target: T1, Endothelin-1 receptor; test: Displacement of 125I-ET1 from ETA receptor (unknown origin) expressed in CHO cells; format: cell-based
[12] = molecular target: T3, Endothelin receptor type B; test: Antagonist activity at ETB receptor (unknown origin) in presence of ET1
Endothelin-1 receptor [13] = molecular target: T1, Endothelin-1 receptor; test: Antagonist activity at human ETA receptor expressed in CHO cells in presence of ET1; format: cell-based
[14] = Oral bioavailability in dog at 15 mg/kg; format: ADME, organism-based, Canis lupus familiaris; details: in vivo
[15] = Oral bioavailability in rat at 15 mg/kg; format: ADME, organism-based; details: in vivo

Description for physchem: Dissociation constant, pKa of the compound

Structure (SMILES): CCc1cc(C2=C(C(=O)O)N(c3ccccc3C(F)(F)F)S(=O)(=O)c3ccccc32)cc2c1OCO2 [FANDOSENTAN]
- bioavailability [1]: 100%
- IC50 (Endothelin-1 receptor [2]): 0.5 nM

Structure (SMILES): Cc1noc(NS(=O)(=O)c2ccccc2-c2ccc(-c3ncco3)cc2)c1C
- Ki [5]: 1900 nM

Structure (SMILES): CCCNS(=O)(=O)Nc1ncnc(OCCOc2ncc(Br)cn2)c1-c1ccc(Br)cc1
- pKa (physchem): 6.2
- IC50 (Endothelin-1 receptor [13]): 3.4 nM

Structure (SMILES): Cc1cc2c(cc1CC(=O)c1sccc1S(=O)(=O)Nc1onc(C)c1Cl)OCO2 [SITAXENTAN]
- bioavailability [14]: 60 to 100%
- bioavailability [15]: 60 to 100%

Continued, values first:

- IC50 [3]: 1000 nM
- IC50 (Endothelin-1 receptor [4]): 220 nM
Structure (SMILES): COc1cccc(Oc2c(NS(=O)(=O)c3ccc(C(C)(C)C)cc3)ncnc2OCCO)c1

- IC50 [6]: 914 nM
- IC50 (Endothelin-1 receptor [7]): 26 nM
- IC50 (Endothelin-1 receptor [8]): 50 nM
Structure (SMILES): COc1ccccc1Oc1c(NS(=O)(=O)c2ccc(C(C)C)cc2)nc(C(F)(F)F)nc1OCCO

- IC50 [9]: 600 nM
- IC50 (Endothelin-1 receptor [10]): 3.1 nM
- IC50 (Endothelin-1 receptor [11]): 1.4 nM
- IC50 [12]: 1200 nM
Structure (SMILES): COc1ccccc1Oc1c(NS(=O)(=O)c2ccc(C)cn2)nc(-c2ccncc2)nc1OC [AVOSENTAN]
